Like-named read-outs stand apart in the source and are kept apart here.
Experiments:
[1] = test system: AR (androgen receptor); experiment: NVS_NR_hAR: Human AR 3H-Methyltrienolone (cell-free HTS); type: binding
Excerpt: These are a collection of biochemical assays measuring binding constants and enzyme inhibition values. Chemicals were initially screened at a single concentration in duplicate wells at a concentration of 10 [drawing 63] M for cytochrome P-450 assays and 25 [drawing 64] M for all others. […] These assays were run by Caliper Life Sciences (Hanover, MD) under contract to EPA. Short assay descriptions are available at: http://www.caliperls.com/products/contract-research/in-vitro/.
Cell-free HTS Assays: A collection of biochemical assays measuring binding constants and enzyme inhibition values. […] These assays were run by Caliper Life Sciences (Hanover, MD) under contract to EPA. Short assay descriptions are available at http://www.caliperls.com/products/contract-research/in-vitro/. Values for all endpoints were imported into GeneData Screener (Basel, Switzerland) and normalised to solvent controls from the same plate as the tested compounds and expressed as percent of neutral control. Concentration-response curves were fit in GeneData Screener (Basel, Switzerland) Condeseo module using the Hill equation and AC50 values were determined. […] Detailed description of the methods, data and analysis methods for this dataset are described in a separate publication.

[2] = test system: LXR (NR1H3); experiment: ATG_DR4_LXR_CIS: Factorial reporter gene assay (HepG2); type: cell-based, human; design: scale not given here; settings: scale not given, looks like -log10 of molar active concentration, 0 = no activity
Procedure: (§1) A multiple reporter transcription unit (MRTU) library consisting of 48 transcription factor binding sites was transfected into the HepG2 human liver hepatoma cell line. In addition to the cis-acting reporter genes (CIS), a modification of the approach was used to generate a trans-system (TRANS) with a mammalian one-hybrid assay consisting of an additional 25 MRTU library reporting the activity of nuclear receptor super-family members. […] These assays were performed by Attagene Inc. (Morrisville NC) under contract to EPA.
(§2) In addition to the cis-acting reporter genes (CIS), a modification of the approach was used to generate a trans-system (TRANS) with a mammalian one-hybrid assay consisting of an additional 25 MRTU library reporting the activity of nuclear receptor super-family members. […] Chemicals were then tested in the CIS and TRANS assays at seven concentrations starting at the MTC and followed by three-fold serial dilutions. These assays were performed by Attagene Inc. (Morrisville NC) under contract to EPA. Detailed description of the methods, data and analysis methods for this dataset will be presented in a separate publication.

[3] = test system: ABCB1; experiment: CLZD_ABCB1: Change in expression of ABCB1 (primary human hepatocytes); type: cell-based; settings: 24 hr
In short: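 Primary human hepatocytes exposed to 5 concentrations (0.004-40 µM) for 6, 24 or 48 hr; transcript levels measured by multiplexed quantitative nuclease protection assay. Markers of nuclear receptor pathways: CYP1A1 (AhR), CYP2B6 and ABCB1 (CAR), CYP3A4 (PXR).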

[4] = target: T1, LXRb (NR1H2) (Homo sapiens, UniProt P55055); experiment: ATG_LXRb_TRANS: Factorial reporter gene assay (HepG2); type: cell-based
T1 construct: expressed in transfected cells; host or cells: HepG2
T1 sequence (P55055 1-460): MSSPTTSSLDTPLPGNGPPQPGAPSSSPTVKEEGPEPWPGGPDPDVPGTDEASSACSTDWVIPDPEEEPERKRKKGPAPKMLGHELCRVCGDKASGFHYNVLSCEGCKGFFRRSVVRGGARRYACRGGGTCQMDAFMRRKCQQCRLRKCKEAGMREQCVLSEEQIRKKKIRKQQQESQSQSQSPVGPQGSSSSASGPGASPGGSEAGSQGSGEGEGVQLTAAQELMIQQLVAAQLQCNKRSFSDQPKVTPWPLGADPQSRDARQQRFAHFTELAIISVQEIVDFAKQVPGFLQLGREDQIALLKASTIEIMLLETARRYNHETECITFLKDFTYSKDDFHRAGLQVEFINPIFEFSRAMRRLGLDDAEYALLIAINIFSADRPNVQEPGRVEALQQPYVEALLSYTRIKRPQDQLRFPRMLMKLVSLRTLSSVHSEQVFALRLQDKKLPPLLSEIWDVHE
Procedure: as §1, §2

[5] = scale not given, looks like -log10 of molar active concentration, 0 = no activity
[6] = HepG2, scale not given, looks like -log10 of molar active concentration, 0 = no activity

| SMILES | NVS_NR_hAR [1, 5] | ATG_DR4_LXR_CIS [2] | CLZD_ABCB1_24 [3, 5] | ATG_LXRb_TRANS [4, 6] | ATG_LXRb_TRANS ([4]; HepG2 reporter) | NVS_NR_hAR [1] | CLZD_ABCB1_24 [3] |
| --- | --- | --- | --- | --- | --- | --- | --- |
| CC(C)N1C(=O)c2ccccc2NS1(=O)=O [r37] | 0 | 4.284 | 0 | 4.357 | – | – | – |
| CCc1nn(C)c(C(=O)NCc2ccc(C(C)(C)C)cc2)c1Cl [r291] | – | – | – | – | 6.337 | – | – |
| CCCCOCN(C(=O)CCl)c1c(CC)cccc1CC [r46] | 0 | 0 | 0 | 0 | – | – | – |
| COC(=O)c1ccccc1CS(=O)(=O)NC(=O)Nc1nc(OC)cc(OC)n1 [r33] | 0 | 0 | 0 | 4.347 | – | – | – |
| CNC(=O)Oc1cccc2ccccc12 [r52] | 0 | 0 | 0 | 0 | – | – | – |
| Nc1cnn(-c2ccccc2)c(=O)c1Cl [r56] | 0 | 0 | 0 | 0 | – | – | – |
| CC(C)(c1ccc(O)cc1)c1ccc(O)cc1 [r40] | 4.747 | 0 | 0 | 0 | – | – | – |
| CCCC1COC(Cn2cncn2)(c2ccc(Cl)cc2Cl)O1 (stereo not drawn) [r262] | – | – | – | – | – | 4.367 | 5.099 |
| Cc1c(COC(=O)C2C(/C=C(\Cl)C(F)(F)F)C2(C)C)cccc1-c1ccccc1 (stereo not drawn) [r39] | 0 | 0 | 4.829 | 0 | – | – | – |
| CCC(C)n1c(=O)[nH]c(C)c(Br)c1=O (stereo not drawn) [r43] | 0 | 0 | 0 | 0 | – | – | – |
| COc1cc(Cl)c(OC)cc1Cl [r57] | 0 | 0 | 0 | 0 | – | – | – |
| COc1nc(C)nc(NC(=O)NS(=O)(=O)c2ccccc2Cl)n1 [r62] | 0 | 0 | 0 | 0 | – | – | – |
| CCOC(=O)C(Cl)Cc1cc(-n2nc(C)n(C(F)F)c2=O)c(F)cc1Cl (stereo not drawn) [r54] | 0 | 0 | 0 | 0 | – | – | – |
| COc1ccc(-c2ccccc2)cc1NNC(=O)OC(C)C [r38] | 0 | 0 | 0 | 0 | – | – | – |
| N#Cc1cc(Br)c(O)c(Br)c1 [r44] | 0 | 0 | 0 | 0 | – | – | – |
| Cc1ccccc1CO[C@@H]1C[C@@]2(C(C)C)CC[C@]1(C)O2 [r64] | 0 | 0 | 0 | 0 | – | – | – |
| COc1nc(C)nc(NC(=O)NS(=O)(=O)c2ccccc2Cl)n1 [r63] | 0 | 0 | 0 | 0 | – | – | – |
| CC1=C(C(=O)Nc2ccccc2)SCCO1 [r53] | 0 | 0 | 0 | 0 | – | – | – |
| C#CCC1=C(C)[C@H](OC(=O)[C@H]2[C@H](C=C(C)C)C2(C)C)CC1=O [r249] | – | – | – | – | – | 4.991 | – |
| CCC(C)Nc1c([N+](=O)[O-])cc(C(C)(C)C)cc1[N+](=O)[O-] (stereo not drawn) [r48] | 0 | 0 | 0 | 0 | – | – | – |
| CC(C)OC(=O)Nc1cccc(Cl)c1 [r59] | 4.936 | 0 | 0 | 0 | – | – | – |
| N#Cc1c(Cl)c(Cl)c(Cl)c(C#N)c1Cl [r58] | 0 | 0 | 0 | 0 | – | – | – |
| C=CCOC(=O)C(C)(C)OC(=O)c1cc(-n2c(=O)cc(C(F)(F)F)n(C)c2=O)ccc1Cl [r47] | 0 | 0 | 0 | 0 | – | – | – |
| CCSC(=O)N(CC(C)C)CC(C)C [r49] | 0 | 0 | 0 | 0 | – | – | – |
| CC(C)N1C(=O)N(c2ccccc2)CS/C1=N\C(C)(C)C [r45] | 0 | 0 | 4.531 | 0 | – | – | – |
| O=C1C2CC=CCC2C(=O)N1SC(Cl)(Cl)Cl (stereo not drawn) [r51] | 0 | 0 | 0 | 0 | – | – | – |
| O=C(Nc1ccccc1-c1ccc(Cl)cc1)c1cccnc1Cl [r42] | 0 | 0 | 0 | 0 | – | – | – |
| OB(O)O [r41] | 0 | 0 | 0 | 0 | – | – | – |
| CCN(CC)C(=O)C(C)Oc1cccc2ccccc12 (stereo not drawn) [row 219] | – | – | – | – | – | 5.12 | – |
